Data published in US20170237129A1, “Quaternary Ammonium Halides With Ether Functional Groups For Use As Battery Electrolytes” (Albemarle Corporation, priority 2014, published 2017).

How the values were obtained:
Assay type in all cases: physicochemical
[1] = Measurement of free bromine in aqueous phase; settings: stirred 24 hrs, top aqueous phase, wt %
Description: The forward operation of a bromine-containing battery generally involves the conversion of elemental bromine to ionic bromine. The quat/Br2 complex results from an equilibrium reaction in which the Br2 is released from the complex as the concentration of free Br2 in the aqueous electrolyte drops during battery operation. In its fully charged state, the electrolyte solution inevitably contains some degree of uncomplexed bromine. A measure of a quat's ability to complex elemental bromine is the amount of elemental bromine left in solution when the complexation reaction proceeds to equilibrium. Such bromine is referred to as “free bromine.” Measurement of free bromine in aqueous phase is set forth in Example 1.
Two slightly different methods were used to prepare the electrolyte compositions, A) one containing 0.7M quat and B) the other containing 0.8M quat. In composition A, 2.0 moles of bromine was added to an aqueous solution containing 0.5 moles of zinc bromide and 0.7 moles of the quat. The two-phase mixture was stirred for 24 hrs. and then the phases were allowed to settle. The top aqueous phase was sampled for free bromine measurement. In composition B, 1.44 moles of bromine was added to an aqueous solution containing 0.5 moles of zinc bromide, 0.4 moles of zinc chloride and 0.8 moles of the quat. The top aqueous phase obtained after stirring for 24 hrs. was used for free bromine measurement.
A 250-ml Erlenmeyer flask was charged with 50 ml of deionized water and weighed (A). A sample of the clear aqueous phase was passed through glass wool to remove any suspended organic phase and then added to the Erlenmeyer flask. The flask was weighed again (B) and the difference in weight (B-A) was noted as the weight of the sample. About 20 ml of 20% potassium iodide solution followed by about 5 ml of starch solution was added to the flask. The resulting dark mixture was titrated against 0.02N sodium thiosulfate solution. The end-point was the disappearance of purple color. Free bromine (wt %) was calculated in the following manner:
Wt % free Br2=Volume (ml) of sodium Thiosulfate×Normality of Sodium thisosulfate/Sample Weight.

[2] = Cloud point determination; settings: 0.7M quat in 2.5M zinc bromide water solution
Description: By “cloud point” is meant the cloud point of an aqueous solution containing 0.7 M complexing agent and 2.5 M zinc bromide.
A 0.7M quaternary ammonium bromide in 2.5M Zinc Bromide water solution was prepared. • 2. The solution was transferred to a jacketed flask with a stirring bar and temperature monitor. • 3. The solution was warmed to 15° C. above the expected cloud point. If necessary, any moisture or impurities were removed by filtration. • 4. The solution was stirred, with speed adjustment to about 250 rpm, while avoiding the formation of bubbles. • 5. The solution was cooled gradually (cooling rate of about 1° C./5 min). • 6. The sample was inspected carefully for signs of cloudiness, and the temperature at which cloudiness was observed was recorded to the nearest 0.1° C.

[3] = Free bromine in electrolyte with chloroquat or bromoquat (Example 8); settings: 0.84 M zinc bromide, 0.8 M quat, 1.44 M bromine; stirred 24 hrs at 35° C.
Description: Chloride ions are added to the electrolyte in amounts sufficient to reduce the amount of free bromine present and increase the electrolyte conductivity during charging of the cell, Chloride ions in the electrolyte may come from zinc chloride or quaternary ammonium chloride complexing agent. Experiment 1 of Example 8: An aqueous electrolyte system was prepared having 0.84 M zinc bromide, 0.8 M chioroquat (N-methyl, N-butyl pyrrolidinium chloride) and 1.44 M bromine. After the sample was stirred for 24 hrs at 35° C., the amount of free bromine present in the electrolyte was 0.26%. Experiment 2 of Example 8: An aqueous electrolyte system was prepared having 0.84 M zinc bromide, 0.8 M bromoquat (N-methyl, N-butyl pyrrolidinium bromide) and 1.44 M bromine. After the sample was stirred for 24 hrs at 35° C., the amount of free bromine present in the electrolyte was 0.25%.

[4] = 0.7M quat (composition A: 2.0 moles bromine, 0.5 moles zinc bromide, 0.7 moles quat)
[5] = 0.8M quat (composition B: 1.44 moles bromine, 0.5 moles zinc bromide, 0.4 moles zinc chloride, 0.8 moles quat)

Structure (SMILES) | Free Br2 [1, 4] | Solubility in ZnBr2 Cloud Point [2] | Free Br2 [1, 5] | also measured
CC[N+](C)(CC)CCOC.[Br-] [Compound 4, diethylmethyl-(2-methoxyethyl)ammonium bromide] | 0.7M 0.70% | 0.7M, <-10.5 C. |  | 
CCC[N+]1(CC)CCCCC1 [Compound 10, EthyPropyl Piperidinium Bromide] |  | 0.7M, 45.8 C. | 0.8M 0.026% | Free Br2 ([1]; 0.8M quat (composition B: 1.44 moles bromine, 0.5 moles zinc bromide, 0.4 moles zinc chloride, 0.8 moles quat), listed as compound 10): 0.026%
CCC[N+](CC)(CC)CC.[Br-] [Compound 5, triethylpropylammonium bromide] | 0.7M 0.089% | 0.7M, 41.2 C. |  | Free Br2 ([1]; 0.7M quat (composition A: 2.0 moles bromine, 0.5 moles zinc bromide, 0.7 moles quat), listed as compound 5): 0.089%
CCCC[N+](C)(C)CCOC.[Br-] [Compound 1, Dimethylbutylether Quat Bromide] | 0.7M 0.28% | 0.7M, 29 C. |  | 
CC[N+](CC)(CC)CCOC.[Br-] [Compound 2, (2-methoxyethyl)-triethylammonium bromide] | 0.7M 0.658% | 0.7M, <-10.5 C. | 0.8M 0.467% | 
CCCC[N+]1(C)CCCC1.[Br-] [bromoquat, N-methyl, N-butyl pyrrolidinium bromide] |  |  |  | amount of free bromine present in the electrolyte [3]: 0.25%
CCCC[N+]1(C)CCCC1.[Cl-] [chioroquat, N-methyl, N-butyl pyrrolidinium chloride] |  |  |  | amount of free bromine present in the electrolyte [3]: 0.26%
CC[N+]1(CC)CCCCC1.[Br-] [Compound 9, Diethyl Piperidinium Bromide] |  | 0.7M, 11.9 C. | 0.8M 0.26% | Free Br2 ([1]; 0.8M quat (composition B: 1.44 moles bromine, 0.5 moles zinc bromide, 0.4 moles zinc chloride, 0.8 moles quat), listed as compound 9): 0.26%
